System: ring stage parasites
Test: Parasite growth potency assay, 72 hours, LDH readout
Assay type: cell-based
Details: 72 h, parasite growth measured by LDH assay after 72 hours at 37° C.; 0.7% rings, 2% haematocrit; read-out: EC50
Procedure: The parasite stock was maintained at 4% haematocrit in RPMI-Hepes media buffered with sodium bicarbonate and supplemented with 5% heat inactivated human serum and 0.5% albumax.
On the day of assay set up, a blood smear of the parasite culture was Giemsa stained and counted. The parasitemia was adjusted to 0.7% rings and the haematocrit was diluted to 2% in RPMI-Hepes media buffered with sodium bicarbonate and supplemented with 5% heat inactivated human serum and 0.5% albumax. 30 ul of diluted parasites are then added into 10 ul of media+compound in pre-prepared Greiner TC assay plates. Parasite assay plates were placed in gassed humidified boxes in single layer and allowed to incubate at 37° C. for 72 hours. After 72 hours growth, assay plates are sealed with parafilm and frozen flat, in single file at −80° C. overnight. On the following day, assay plates are allowed to thaw at room temperature for 4 hours to which an LDH assay is performed to measure parasite growth.

Q: `CCC[C@H](c1cccc(C(=O)NC2CC(C)(C)Oc3ccccc32)c1)N1C(=N)NC(CC)(CC)CC1=O` (stereo in doubt) [Example 62A, [1-[1-[3-[(2,2-dimethylchroman-4-yl)carbamoyl]phenyl]butyl]-4,4-diethyl-6-oxo-hexahydropyrimidin-2-ylidene]ammonium; 2,2,2-trifluoroacetate] was tested. Which EC50 did it give?
A: 0.4 nM

Q: For `CCC[C@@H](c1cccc(C(=O)NC2CC(C)(C)Oc3ccccc32)c1)N1C(=N)NC(CC)(CC)CC1=O` (stereo in doubt) [Example 62B, [1-[1-[3-[(2,2-dimethylchroman-4-yl)carbamoyl]phenyl]butyl]-4,4-diethyl-6-oxo-hexahydropyrimidin-2-ylidene]ammonium; 2,2,2-trifluoroacetate], which EC50 is on record?
A: 7.5 nM

Q: For `CCC1(CC)CC(=O)N([C@@H](CCOC)c2cccc(C(=O)NC3CC(C)(C)Oc4ccccc43)c2)C(=N)N1` (stereo in doubt) [Example 72A, [1-[1-[3-[(2,2-dimethylchroman-4-yl)carbamoyl]phenyl]-3-methoxy-propyl]-4,4-diethyl-6-oxo-hexahydropyrimidin-2-ylidene]ammonium; 2,2,2-trifluoroacetate], which EC50 is on record?
A: 25.5 nM

Q: `CCC1(CC)CC(=O)N([C@H](CCOC)c2cccc(C(=O)NC3CC(C)(C)Oc4ccccc43)c2)C(=N)N1` (stereo in doubt) [Example 72B, [1-[1-[3-[(2,2-dimethylchroman-4-yl)carbamoyl]phenyl]-3-methoxy-propyl]-4,4-diethyl-6-oxo-hexahydropyrimidin-2-ylidene]ammonium; 2,2,2-trifluoroacetate] was tested. Which EC50 did it give?
A: 0.3 nM

Q: For `CC#CCC[C@H](c1cccc(C(=O)N[C@H]2CC(C)(C)Oc3ccccc32)c1)N1C(=N)NC(CC)(CC)CC1=O` (stereo in doubt) [Example 83B, [1-[1-[3-[(2,2-dimethylchroman-4-yl)carbamoyl]phenyl]hex-4-ynyl]-4,4-diethyl-6-oxo-hexahydropyrimidin-2-ylidene]ammonium; 2,2,2-trifluoroacetate], which EC50 is on record?
A: 0.4 nM

Q: Which EC50 does the source give for `CCC1(CC)CC(=O)N(Cc2cccc(C(=O)N[C@@H]3c4ccccc4OCC3F)c2)C(=N)N1` (stereo in doubt) [Example 87, [4,4-diethyl-1-[[3-[(3-fluorochroman-4-yl)carbamoyl]phenyl]methyl]-6-oxo-hexahydropyrimidin-2-ylidene]ammonium; 2,2,2-trifluoroacetate] here?
A: 7.3 nM

Q: `CCC1(CC)CC(=O)N(Cc2cccc(C(=O)N[C@H]3CC(C)(C)Oc4ccc(F)cc43)c2)C(=N)N1` (stereo in doubt) [Example 88, [4,4-diethyl-1-[[3-[(6-fluoro-2,2-dimethyl-chroman-4-yl)carbamoyl]phenyl]methyl]-6-oxo-hexahydropyrimidin-2-ylidene]ammonium; 2,2,2-trifluoroacetate] was tested. Which EC50 did it give?
A: 0.4 nM

Q: How did the EC50 turn out when `CCC1(CC)CC(=O)N(Cc2cc(C#N)cc(C(=O)N[C@@H]3CC(C)(C)Oc4ccccc43)c2)C(=N)N1` (stereo in doubt) [Example 89A, [1-[[3-cyano-5-[(2,2-dimethylchroman-4-yl)carbamoyl]phenyl]methyl]-4,4-diethyl-6-oxo-hexahydropyrimidin-2-ylidene]ammonium; 2,2,2-trifluoroacetate] was run?
A: 9.8 nM

Q: How did the EC50 turn out when `CCC1(CC)CC(=O)N(Cc2cc(C#N)cc(C(=O)N[C@H]3CC(C)(C)Oc4ccccc43)c2)C(=N)N1` (stereo in doubt) [Example 89B, [1-[[3-cyano-5-[(2,2-dimethylchroman-4-yl)carbamoyl]phenyl]methyl]-4,4-diethyl-6-oxo-hexahydropyrimidin-2-ylidene]ammonium; 2,2,2-trifluoroacetate] was run?
A: 1.6 nM

Q: Which EC50 does the source give for `CCC1(CC)CC(=O)N([C@H](c2cccc(C(=O)N[C@H]3CC(C)(C)Oc4ccccc43)c2)c2cncs2)C(=N)N1` (stereo in doubt) [Example 90C, 3-[(4,4-diethyl-2-imino-6-oxo-hexahydropyrimidin-1-yl)-thiazol-5-yl-methyl]-N-(2,2-dimethylchroman-4-yl)benzamide] here?
A: 12 nM

Q: For `CCC1(CC)CC(=O)N(Cc2cccc(C(=O)N[C@@H]3C[C@@H](C(F)(F)F)Oc4ccccc43)c2)C(=N)N1` (stereo in doubt) [Example 91B, [4,4-diethyl-6-oxo-1-[[3-[[2-(trifluoromethyl)chroman-4-yl]carbamoyl]phenyl]methyl]hexa-hydropyrimidin-2-ylidene]ammonium; 2,2,2-trifluoroacetate], which EC50 is on record?
A: 63.7 nM

Q: With `CCC1(CC)CC(=O)N([C@H](c2cncnc2)c2cccc(C(=O)N[C@H]3CC(C)(C)Oc4ccccc43)c2)C(=N)N1` (stereo in doubt) [Example 92B, 3-[(4,4-diethyl-2-imino-6-oxo-hexahydropyrimidin-1-yl)-pyrimidin-5-yl-methyl]-N-(2,2-dimethylchroman-4-yl)benzamide] as the molecule, how does the EC50 read?
A: 0.9 nM

Q: With `CCC1(CC)CC(=O)N(Cc2cccc(C(=O)N[C@H]3CC(C)(C)Oc4cc(F)ccc43)c2)C(=N)N1` (stereo in doubt) [Example 93, [4,4-diethyl-1-[[3-[(7-fluoro-2,2-dimethyl-chroman-4-yl)carbamoyl]phenyl]methyl]-6-oxo-hexahydropyrimidin-2-ylidene]ammonium; 2,2,2-trifluoroacetate] as the molecule, how does the EC50 read?
A: 1.8 nM

Q: How did the EC50 turn out when `CCC1(CC)CC(=O)N(Cc2cccc(C(=O)N[C@H]3CC(C)(C)Oc4cccc(F)c43)c2)C(=N)N1` (stereo in doubt) [Example 94A, [4,4-diethyl-1-[[3-[(5-fluoro-2,2-dimethyl-chroman-4-yl)carbamoyl]phenyl]methyl]-6-oxo-hexahydropyrimidin-2-ylidene]ammonium; 2,2,2-trifluoroacetate] was run?
A: 0.4 nM

Same assay, conditions: parasite growth measured by LDH assay after 72 hours at 37° C.; 0.7% rings, 2% haematocrit; read-out: EC50

Q: For `CC[C@]1(C)CC(=O)N(C(CCOC(F)F)c2cccc(C(=O)NC3c4ccccc4OC(C)(C)C3(C)O)c2)C(=N)N1` (single isomer, unassigned) [Example 240A], which EC50 is on record?
A: 91.6 nM

Q: For `CC[C@]1(C)CC(=O)N(C(CCOC(F)F)c2cccc(C(=O)NC3c4ccccc4OC(C)(C)C3(C)O)c2)C(=N)N1` (single isomer, unassigned) [Example 240B], which EC50 is on record?
A: 0.25 nM

Q: Which EC50 does the source give for `CCC1(CC)CC(=O)N([C@@H](c2cccc(C(=O)N[C@@H]3CC(C)(C)Oc4ccccc43)c2)c2cncs2)C(=N)N1` (stereo in doubt) [Example 90A, 3-[(4,4-diethyl-2-imino-6-oxo-hexahydropyrimidin-1-yl)-thiazol-5-yl-methyl]-N-(2,2-dimethylchroman-4-yl)benzamide] here?
A: 3.2 nM

Q: With `CCC1(CC)CC(=O)N([C@@H](c2cccc(C(=O)N[C@@H]3CC(C)(C)Oc4ccccc43)c2)c2cncs2)C(=N)N1` (stereo in doubt) [Example 90B, 3-[(4,4-diethyl-2-imino-6-oxo-hexahydropyrimidin-1-yl)-thiazol-5-yl-methyl]-N-(2,2-dimethylchroman-4-yl)benzamide] as the molecule, how does the EC50 read?
A: 0.5 nM

Same assay, conditions: parasite growth measured by LDH assay after 72 hours at 37° C.; 0.7% rings, 2% haematocrit; trifluoroacetate; read-out: EC50

Q: Which EC50 does the source give for `CCC1(CC)CC(=O)N(Cc2cccc(C(=O)N[C@H]3C[C@H](C(F)(F)F)Oc4ccccc43)c2)C(=N)N1` (stereo in doubt) [Example 91A, [4,4-diethyl-6-oxo-1-[[3-[[2-(trifluoromethyl)chroman-4-yl]carbamoyl]phenyl]methyl]hexa-hydropyrimidin-2-ylidene]ammonium; 2,2,2-trifluoroacetate] here?
A: 1.9 nM
